Test results as given in patent publication US20180022711A1, “NOVEL CRYSTAL FORMS OF THE MONOSODIUM SALT OF FORAMSULFURON” (BAYER CROPSCIENCE AKTIENGESELLSCHAFT, priority 2014, published 2018).
Entries after “also recorded” stand apart in the source; their conditions may differ.

Columns and labels:
Assay type in all cases: physicochemical
[1] = Hygroscopicity: open storage over water for one week at 25° C., water content by Karl Fischer titration; details: for Water content of the sample after storage: one week at 25° C. in sealed beaker over water, Karl Fischer titration
Method: 100 mg each of crystal forms A, B and C were separately filled into small glass vials with snap-on caps. These three glass vials with snap-on caps were placed unsealed in a glass beaker of which the bottom was covered with a small amount of water. The glass beaker was then sealed with a reversible sealing film and stored for one week at 25° C. After this storage period, the water content of the respective sample was determined by Karl Fischer titration.

[2] = Storage of methanol-moist crystal form A and conversion into crystal form C
Method: In separate containers, 5 g each of crystal form A were each stirred with 20 g of MeOH and subsequently filtered off.
At 20° C., 30° C. and 35° C., the moistened products were stored for one week and a sample taken daily. These samples were dried at 65° C. and 100 mbar and the respective methanol content subsequently determined.
Already after 2 days (35° C.), 3 days (30° C.) and 7 days (20° C.), crystal form A had converted practically completely into crystal form C (MeOH content about 6.4% by weight).

[3] = Stability test of crystal form B in methanol; details: suspended in methanol, stirred 7 days at 30° C., filtered and dried
Method: 10 g of crystal form B (MeOH content<0.01%) were suspended in 100 g of methanol and stirred for 7 days at 30° C. The product was filtered and then dried overnight at 70° C. and a pressure<100 mbar. 9.1 g of a 99.4% strength product were obtained. The methanol content in the product obtained was 0.004% by weight and the acetone content was 0.0003% by weight.

[4] = Sorption/desorption curve, isothermal at 25° C.; details: for Desorption (% by weight) / Sorption (% by weight): 25° C.
Method: Sorption and desorption curves of crystal form B were measured isothermically at 25° C. The sorption curve gives the water uptake at increasing relative humidity and the desorption curve gives the drying behaviour on moisture reduction.

COc1cc(OC)nc(NC(=O)NS(=O)(=O)c2cc(NC=O)ccc2C(=O)N(C)C)n1.[Na] [Crystal form C]
Water content of the sample after storage ([1]; listed as crystal form C): 21.3 % by weight

COc1cc(OC)nc(NC(=O)NS(=O)(=O)c2cc(NC=O)ccc2C(=O)N(C)C)n1.[Na] [Crystal form A, reference compound]
Water content of the sample after storage ([1]; listed as crystal form A): 15.7 % by weight | Appearance of the sample after storage ([1]; one week at 25° C. over water): very ductile and sticky | Hygroscopicity (in words) ([1]; one week at 25° C. over water): hygroscopic | Time until practically complete conversion into crystal form C ([2]; stored at 20° C.): 7 days | Time until practically complete conversion into crystal form C ([2]; stored at 30° C.): 3 days | Time until practically complete conversion into crystal form C ([2]; stored at 35° C.): 2 days

COc1cc(OC)nc(NC(=O)[N-]S(=O)(=O)c2cc(NC=O)ccc2C(=O)N(C)C)n1.[Na+] [Crystal form B, monosodium salt of foramsulfuron]
Water content of the sample after storage [1]: 0.4 % by weight | Appearance of the sample after storage ([1]; one week at 25° C. over water): still crystalline and powdery | Methanol content in the product obtained [3]: 0.004 % by weight | Hygroscopicity (in words) ([4]; conclusion from sorption/desorption at 25° C.): not hygroscopic; also recorded: non-hygroscopic | Desorption (% by weight) ([4]; relative humidity 10.0%): 0.846 % by weight | Sorption (% by weight) ([4]; relative humidity 10.0%): 0.100 % by weight | Desorption (% by weight) ([4]; relative humidity 20.0%): 1.227 % by weight | Sorption (% by weight) ([4]; relative humidity 20.0%): 0.201 % by weight | Desorption (% by weight) ([4]; relative humidity 30.0%): 1.495 % by weight | Sorption (% by weight) ([4]; relative humidity 30.0%): 0.313 % by weight | Desorption (% by weight) ([4]; relative humidity 40.0%): 1.760 % by weight | Sorption (% by weight) ([4]; relative humidity 40.0%): 0.444 % by weight | Desorption (% by weight) ([4]; relative humidity 50.0%): 2.086 % by weight | Sorption (% by weight) ([4]; relative humidity 50.0%): 0.566 % by weight | Desorption (% by weight) ([4]; relative humidity 60.0%): 2.269 % by weight | Sorption (% by weight) ([4]; relative humidity 60.0%): 0.684 % by weight | Desorption (% by weight) ([4]; relative humidity 70.0%): 2.485 % by weight | Sorption (% by weight) ([4]; relative humidity 70.0%): 0.864 % by weight | Desorption (% by weight) ([4]; relative humidity 80.0%): 3.016 % by weight | Sorption (% by weight) ([4]; relative humidity 80.0%): 1.085 % by weight | Desorption (% by weight) ([4]; relative humidity 90.0%): 5.151 % by weight | Sorption (% by weight) ([4]; relative humidity 90.0%): 2.335 % by weight
